# From paper PMC10800023 (Human Molecular Genetics, 2023)
# Tests used:
# IL-1β = experiment: LPS-induced IL-1β in cultured BMDM; format: cell-based; settings: Mus musculus, corticosteroid overnight, LPS 10 ng/ml 3 h
# Text: (§1) The immunosuppressive activity of corticosteroids is in part due to their inhibition of NF-κB-induced cytokines including TNF-α, IL-6, and IL-12. Furthermore, expression of some inflammatory-mediated proteins such as STAT1 is mediated via GREs, and not the NF-κB pathway. We therefore expanded murine bone marrow-derived macrophages (BMDM) in vitro, and after 5 days of culture tested the relative efficacy of different corticosteroids to prevent LPS-induced cytokine secretion.
# (§2) BMDM mouse bone marrow derived macrophage (mBMDM) cultures were generated from the femur and tibia from two 7–11-week-old C57BL/6 mice. Briefly, bone marrow cells were carefully flushed out, suspended in ice-cold PBS, and spun down. After the supernatant was removed, the pelleted cells were resuspended in 2 ml (ammonium-Chloride-Potassium) ACK lysis buffer (Thermo Fisher, Cat# A1049201) and incubated for 3–4 min, followed by 14 ml ice-cold PBS, and then spun down. The pelleted cells were resuspended in 43 ml complete media [Roswell Park Memorial Institute (RPMI 1640), Gibco, Cat# 11875-093; 10% heat-inactivated fetal bovine serum (HiFBS), HyClone, Cat# SH30406.02; 1% 2 mM L-glutamine; 1% penicillin-streptomycin, Sigma, Cat# P4333-100ML; 1% MEM NEAA, Gibco, Cat# 11140-050; 1% Na Pyruvate, Gibco, Cat# 11360-070; 55 μM 2-Mercaptoethanol, Gibco, Cat#21985-023]. A total of 25 ng/ml M-CSF was added to the culture. Cells were dispensed as 200 μl per well into a 96-well tissue culture plate and incubated at 37°C, 5% CO2 for 4 days. On Day 5, media were removed and 100 μl fresh complete media containing M-CSF were added. Corticosteroids were added and cells incubated at 37°C and 5% CO2 overnight. Untreated cells were incubated with media. On Day 6, 10 ng/ml of lipopolysaccharide (LPS) was added and incubated at 37°C and 5% CO2 for 3 h followed by removal of cell media for cytokine analysis. Cytokines were measured using a Meso Scale Discovery (MSD), V-PLEX kit (V-PLEX Cat# K-15048D, www.mesoscale.com).
# IFN-γ = experiment: LPS-induced IFN-γ in cultured BMDM; format: cell-based; settings: Mus musculus, corticosteroid overnight, LPS 10 ng/ml 3 h
# Text: as §1, §2
# B10-mdx mice [1] = experiment: Tail-suspension test 24 h after force-swim test (Study 2); format: in vivo, mouse; settings: daily dosing 4 weeks, high dose (5 mg/kg), vs vehicle B10-mdx
# Description: Corticosteroid-treated mice were subjected to the force-swim test (FST) followed by the tail-suspension test (TST) 24 h later. During the TST, normal mice will struggle and constantly move. However, mice show depression-like behavior by quickly giving up, stop moving, and remaining still for a greater percentage of the time.
# Study 2: The goal of the second study was to evaluate corticosteroid side effects and efficacy in a longer study (4 months). After 28 days of dosing, mice were tested for depression-like behavior using a measure of corticosteroid-induced depression (FST followed by TST). Muscle function was tested via grip strength. Tests for depression and for grip-strength were done in a blinded manner. After 4 months, mice were euthanized, and tissues were collected. Bone from whole left leg was collected for micro-CT analysis. The number of animals per group was as follows: WT, n = 16; B10-mdx, n = 15; corticosteroid-treated groups, n = 8–10.
# • 1) Force-swim test: Animals were single housed and acclimated in the behavior room for 30 min prior to test. A clean 1-L beaker was filled with 700 to 800 ml of 23°C water. Each mouse was placed into the water for 6 min. The total immobility time was recorded. After the test, the animals were dried and placed in a cage on a heating pad for about 10 min before returning to the home cages. • 2) Tail-suspension test: Isolated mice were suspended 50 cm above the floor by surgical tape placed approximately 1 cm from the tip of the tail for 6 min. The total immobility time of mice was measured. Mice were considered immobile only when they hung passively and completely motionless.
# IL-12 = experiment: LPS-induced IL-12 in cultured BMDM; format: cell-based; settings: Mus musculus, corticosteroid overnight, LPS 10 ng/ml 3 h
# Text: as §1, §2
# B10-mdx mice [2] = experiment: RNA-sequencing of tissues after 2 weeks of treatment (Study 1); settings: vs vehicle-treated B10-mdx
structure (smiles),measurement,setting,value
C[C@]12C=CC(=O)C=C1CC[C@@H]1[C@@H]2[C@@H](O)C[C@@]2(C)[C@H]1CC[C@]2(O)C(=O)CO [Prednisolone],EC50,IL-1β,3 nM
same,EC50,IFN-γ,0.5 nM
same,immobilization time in tail suspension test,B10-mdx mice [1],increased the immobilization time significantly
same,EC50,IL-12,8.5 nM
same,"Number of genes, Quadriceps, Down-regulated",B10-mdx mice [2]; 1.2 mg/kg daily,3855
same,"Number of genes, Quadriceps, No Change",B10-mdx mice [2]; 1.2 mg/kg daily,8205
same,"Number of genes, Quadriceps, Up-regulated",B10-mdx mice [2]; 1.2 mg/kg daily,4250
same,"Number of genes, Quadriceps, Down-regulated",B10-mdx mice [2]; 2.4 mg/kg daily,5216
same,"Number of genes, Quadriceps, Up-regulated",B10-mdx mice [2]; 2.4 mg/kg daily,6030
same,"Number of genes, Quadriceps, Down-regulated",B10-mdx mice [2]; 5 mg/kg daily,4173
same,"Number of genes, Quadriceps, No Change",B10-mdx mice [2]; 5 mg/kg daily,7883
same,"Number of genes, Quadriceps, Up-regulated",B10-mdx mice [2]; 5 mg/kg daily,4254
